In general, pKa refers to the pH at which an ionisable group is half protonated.

Among the data in ChEMBL document CHEMBL1123714, “Potential antitumor agents. 48. 3'-Dimethylamino derivatives of amsacrine: redox chemistry and in vivo solid tumor activity” (J Med Chem, 1987) are pKa values, retold here.

The series is described as follows: physchem. The conditions noted are these: 20% DMF.

In the case of `CN(C)c1cc(NS(C)(=O)=O)ccc1Nc1c2ccccc2nc2ccccc12`, the pKa came out at 7.25.
The same measure for `CNc1cc(NS(C)(=O)=O)ccc1Nc1c2ccccc2nc2ccccc12`: 7.47.
